Data: patent US6893834B2, “Assay for kinases and phosphatases” (Promega Corporation, priority 2000, dated 2005)

Key:
PI-5K = assay: Reaction specificity of PI-5K toward lipid substrates; type: biochemical; conditions: purified PI-5K 125 ng/ml, 15 min, room temperature; FIG. 9
Procedure: FIG. 9: Reaction specificity toward lipid substrates. Reactions according to the subject invention were performed with purified PI4P-5K (250 ng/ml) for 45 min at room temperature using 1 μg of different lipid substrates: PI3,4P (lane 1); PI3,5P2 (lane 2) and PI4,5P2 (lane 3). In addition to lipid substrates, all samples contained 10 μg of PS loaded on the membrane.
Lipids, 10 μg of PI4,5P2+20 μg of PS, were dissolved in chloroform:methanol (2:1) and loaded onto “SAM2”-brand membranes for PI-3K activity measurements. Likewise, 10 μg of PI4P was loaded onto “SAM2”-brand membranes for PI4P-5K activity measurements. The membranes were air dried and a reaction mixture containing 50 mM HEPES/NaOH, pH7.5, 100 mM NaCl, 10 mM MgCl2, 20 ng partially-purified PI-3K or 10 ng of purified PI4P-5K, 50 μM ATP supplemented with 1 μCi of γ-^32P-ATP was added onto the membrane containing the immobilized lipids.
Following incubation at room temperature, the reactions were stopped with 7.5 M guanidine chloride and the membranes were washed with 2M NaCl, followed by 2 M NaCl/1% H3PO4. The washed membranes were dried and subjected to scintillation counting.
This Example illustrates the reaction specificity toward lipid substrates. Here, a reaction was performed with purified PI-5K (125 ng/ml) for 15 min at room temperature using different lipid substrates: PI3,4P (lane 1); PI3,5P (lane 2) and PI4,5P2 (Lane 3).

3T3 NIH cells = assay: PI-3K activity associated with activated receptor in PDGF-stimulated 3T3 NIH cells; type: cell-based; conditions: PDGF 50 ng/ml, 5 min, 37° C.; reaction 60 min, PI4,5P2 (10 μg) + PS (20 μg); FIG. 3
Procedure: FIG. 3: Detection of PI-3K activity associated with activated receptor. 3T3NIH cells (5×10^7 cells) were treated without (lane 1) or with (lane 2) PDGF (50 ng/ml for 5 min at 37° C.) and PI-3K was co-immunoprecipitated using anti-phosphotyrosine specific antibodies. The PI-3K reactions were run for 60 min using PIP2 (10 μg)+PS (20 μg) as substrates.
In resting cells, PI-3K is located in the cytosol. However, upon cell stimulation, the enzyme is recruited to the plasma membrane where it is associated with particular receptors and is involved in further propagation of the signal. This example illustrates that the described method allows to measure PI-3K activity associated with activated receptor. 3T3 NIH cells (0.5×10^7 cells) were starved oveminght in serum-free medium. PDGF (50 ng/ml) was added to the starved cells and the induction was carried out for 5 min at 37° C. Following the PDGF induction, cells were washed once with PBS while on the plate, scraped into PBS, transferred to a centrifuge tube, pelleted by centrifugation. The cell pellet was lysed and activated receptor-PI-3K complex was iminunoprecipitated using anti-phosphotyrosine specific antibodies. The PI-3K reaction was run for 60 min using PI4,5P2 (10 μg) as substrate, immobilized on “SAM2”-brand membranes, together with 20 μg of carrier lipid (PS).

Substance	substrate for PI-5K (phosphorylation, CPM) (PI-5K)	PI-3K activity co-immunoprecipitated with anti-phosphotyrosine antibodies (3T3 NIH cells)
D-myo-phosphatidylinositol 3,4-bisphosphate [PI3,4P]	suitable substrate	
D-myo-phosphatidylinositol 3,5-bisphosphate [PI3,5P]	not substrates	
D-myo-phosphatidylinositol 4,5-bisphosphate [PI4,5P]	not substrates	
platelet-derived growth factor [PDGF]		increase in PI-3K activity
